Square brackets hold non-standard residues; d marks the D form. Peptide text beside a SMILES is read from it. * marks the point of attachment. dPhe(4-NHCONH2) = NC(=O)Nc1ccc(C[C@@H](N)C(=O)O)cc1; Dihydroorotyl(S) = O=C1C[C@@H](C(=O)*)NC(=O)N1; dPhe(4-Cl) = N[C@H](Cc1ccc(Cl)cc1)C(=O)O; Phe(4-NH2) = Nc1ccc(C[C@H](N)C(=O)O)cc1; d2Nal = N[C@H](Cc1ccc2ccccc2c1)C(=O)O; Lys(iPr) = CC(C)NCCCC[C@H](N)C(=O)O; d3Pal = N[C@H](Cc1cccnc1)C(=O)O
Assay: CS21 safety: treatment-emergent adverse events (MedDRA SOC/PT), crude incidence, also by subgroup
Assay type: in vivo
Procedure: The safety variables for this study were assessed on the following: the frequency and severity of adverse events (AEs); the presence of clinically significant changes in laboratory parameters (clinical chemistry, hematology and urinalysis); changes in electrocardiograms (ECGs) and vital signs; changes detected by physical examination; and body weight.
An AE was therefore any unfavorable or unintended sign (including an abnormal laboratory finding), symptom or disease temporally associated with the use of the product, whether or not related to the IMP.
An adverse drug reaction (ADR) was defined as an AE evaluated by the investigator as being probably or possibly related to treatment with the IMP.
AEs were graded according to the National Cancer Institute (NCI) Common Terminology Criteria for Adverse Events (CTCAE). In accordance with the CTCAE criteria, AEs were rated on a five-point scale corresponding to mild, moderate, severe, life-threatening or disabling and death. For those AEs not described in the CTCAE, a separate five-point rating scale was used for rating of the intensity of AEs as follows below:
Safety parameters were evaluated for all patients included in the ITT analysis set, comprising all 610 randomized patients who received at least one dose of study medication. All safety tables include four columns: the three treatment groups described separately, and the pooled degarelix group.
Adverse events were regarded as ‘treatment-emergent’ if they occurred in the time interval from initial dosing to end-of-study. Adverse events were considered ‘pre-treatment’ if they occurred between screening and the initial injections of IMP. As described above, all AEs were classified according to MedDRA (version 10.0) system organ class (SOC), sorted alphabetically, and by preferred term (PT), in decreasing frequency of occurrence. Treatment-emergent AEs were expressed in terms of intensity (using NCI CTCAE) and relationship to study drug.
Using the results from the summary of clinical efficacy (SCE) and summary of clinical safety (SCS) findings, different patient subgroups were analyzed. Subgroup distinguishers included race (white, black, and other), age (<65 years, […], and >75 years), weight (<70 kg, ≥70−<90 kg, and ≥90 kg), body mass index (BMI) (≤20, >20 to 30, and >30 kg/m^2)), region (North-America, Western Europe, Central and Eastern Europe and Other), and stage of prostate cancer (e.g., localized, locally advanced, and metastatic).

[1] = degarelix 240/160 mg, listed as degarelix
[2] = degarelix Total (pooled), leuprolide 7.5 mg

CC(=O)N[C@H](Cc1ccc2ccccc2c1)C(=O)N[C@H](Cc1ccc(Cl)cc1)C(=O)N[C@H](Cc1cccnc1)C(=O)N[C@@H](CO)C(=O)N[C@@H](Cc1ccc(NC(=O)[C@@H]2CC(=O)NC(=O)N2)cc1)C(=O)N[C@H](Cc1ccc(NC(N)=O)cc1)C(=O)N[C@@H](CC(C)C)C(=O)N[C@@H](CCCCNC(C)C)C(=O)N1CCC[C@H]1C(=O)N[C@H](C)C(N)=O [Degarelix, D-Alaninamide, N-acetyl-3-(2-naphthalenyl)-D-alanyl-4-chloro-D-phenylalanyl-3-(3-pyridinyl)-D-alanyl-L-seryl-4-[[[(4S)-hexahydro-2,6-dioxo-4-pyrimidinyl]carbonyl]amino]-L phenylalanyl-4-[(aminocarbonyl)amino]-D-phenylalanyl-L leucyl-N6-(1-methylethyl)-L-lysyl-L-prolyl] (Ac-[d2Nal][dPhe(4-Cl)][d3Pal]S[Phe(4-NH2)](Dihydroorotyl(S))[dPhe(4-NHCONH2)]L[Lys(iPr)]P[dA]-NH2)
AEs leading to discontinuation, % of patients (degarelix 240/160 mg): 9% | AEs leading to discontinuation, E events (degarelix 240/160 mg): 19 | AEs leading to discontinuation, N patients (degarelix 240/160 mg): 19 | Alanine aminotransferase increased, % of patients (degarelix 240/160 mg): ( 8%) | All AEs, E = number of adverse events (degarelix 240/160 mg): 941 | All AEs, N = number of patients (degarelix 240/160 mg): 167 | Arthralgia, % of patients (degarelix 240/160 mg): ( 3%) | Aspartate aminotransferase increased, % of patients (degarelix 240/160 mg): ( 5%) | Back pain, % of patients (degarelix 240/160 mg): ( 6%) | Blood & lymphatic system disorders, % of patients (degarelix 240/160 mg): ( 5%) | Cardiac disorders, % of patients (degarelix 240/160 mg): ( 9%) | Chills, % of patients (degarelix 240/160 mg): ( 3%) | Constipation, % of patients (degarelix 240/160 mg): ( 3%) | Deaths (Grade 5), % of patients (degarelix 240/160 mg): 2% | Deaths (Grade 5), E events (degarelix 240/160 mg): 6 | Deaths (Grade 5), N patients (degarelix 240/160 mg): 5 | Ear & labyrinth disorders, % of patients (degarelix 240/160 mg): ( 1%) | Endocrine disorders, % of patients (degarelix 240/160 mg): (<1%) | Eye disorders, % of patients (degarelix 240/160 mg): ( 2%) | Fatigue, % of patients (degarelix 240/160 mg): ( 6%) | Gastrointestinal disorders, % of patients (degarelix 240/160 mg): (16%) | General disorders & administration site conditions, % of patients (degarelix 240/160 mg): (50%) | Hepatobiliary disorders, % of patients (degarelix 240/160 mg): (<1%) | Hot flush, % of patients (degarelix 240/160 mg): (26%) | Hypercholesterolaemia, % of patients (degarelix 240/160 mg): ( 6%) | Hypertension, % of patients (degarelix 240/160 mg): ( 7%) | Immune system disorders, % of patients (degarelix 240/160 mg): (<1%) | Infections & infestations, % of patients (degarelix 240/160 mg): (19%) | Injection site erythema, % of patients (degarelix 240/160 mg): (24%) | Injection site induration, % of patients (degarelix 240/160 mg): ( 5%) | Injection site nodule, % of patients (degarelix 240/160 mg): ( 6%) | Injection site pain, % of patients (degarelix 240/160 mg): (30%) | Injection site swelling, % of patients (degarelix 240/160 mg): ( 7%) | Injury, poisoning & procedural complications, % of patients (degarelix 240/160 mg): ( 5%) | Investigations, % of patients (degarelix 240/160 mg): (29%) | Metabolism & nutrition disorders, % of patients (degarelix 240/160 mg): (13%) | Musculoskeletal & connective tissue disorders, % of patients (degarelix 240/160 mg): (18%) | Nausea, % of patients (degarelix 240/160 mg): ( 5%) | Neoplasms benign, malignant & unspecified, % of patients (degarelix 240/160 mg): ( 6%) | Nervous system disorders, % of patients (degarelix 240/160 mg): (13%) | Psychiatric disorders, % of patients (degarelix 240/160 mg): ( 8%) | Renal & urinary disorders, % of patients (degarelix 240/160 mg): (13%) | Reproductive system & breast disorders, % of patients (degarelix 240/160 mg): ( 6%) | Respiratory, thoracic & mediastinal disorders, % of patients (degarelix 240/160 mg): ( 8%) | Serious AEs, % of patients (degarelix 240/160 mg): 12% | Serious AEs, E events (degarelix 240/160 mg): 41 | Serious AEs, N patients (degarelix 240/160 mg): 24 | Skin & subcutaneous tissue disorders, % of patients (degarelix 240/160 mg): (10%) | Surgical & medical procedures, % of patients (degarelix 240/160 mg): (<1%) | Urinary tract infection, % of patients (degarelix 240/160 mg): ( 1%) | Vascular disorders, % of patients (degarelix 240/160 mg): (32%) | Weight increased, % of patients (degarelix 240/160 mg): (11%) | Hot flush, % of patients [1]: 26% | Treatment-emergent adverse events (all AEs), % of patients [1]: 83% | Injection site erythema, % of patients (degarelix Total (pooled)): (21%) | Injection site induration, % of patients (degarelix Total (pooled)): ( 5%) | Injection site nodule, % of patients (degarelix Total (pooled)): ( 5%) | Injection site swelling, % of patients (degarelix Total (pooled)): ( 7%) | Surgical & medical procedures, % of patients (degarelix Total (pooled)): (<1%) | ADRs, % of patients [2]: 58% | ADRs, E events [2]: 922 | ADRs, N patients [2]: 238 | AEs leading to discontinuation, % of patients [2]: 8% | AEs leading to discontinuation, E events [2]: 34 | AEs leading to discontinuation, N patients [2]: 34 | Alanine aminotransferase increased, % of patients [2]: ( 9%) | All AEs, E = number of adverse events [2]: 1878 | All AEs, N = number of patients [2]: 330 | Aspartate aminotransferase increased, % of patients [2]: ( 5%) | Back pain, % of patients [2]: ( 6%) | Cardiac disorders, % of patients [2]: ( 9%) | Chills, % of patients [2]: ( 4%) | Constipation, % of patients [2]: ( 4%) | Deaths (Grade 5), % of patients [2]: 2% | Deaths (Grade 5), E events [2]: 11 | Deaths (Grade 5), N patients [2]: 10

Source: patent publication US11766468B2, “Method of treating prostate cancer with GnRH antagonist” (priority 2012, dated 2023)
